Laboratory results reported in PubChem BioAssay (NCI).
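Compound exposure: 48 hours, 5 concentrations, 96-well plates. TGI denotes the concentration required for complete inhibition of growth.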

Tests used:
Assay in all cases: DTP human tumour cell line panel, 48 h
[1] = system: 786-0 renal
[2] = system: A498 renal
[3] = system: A549 NSCLC
[4] = system: ACHN renal
[5] = system: BT-549 breast
[6] = system: CAKI-1 renal
[7] = system: CCRF-CEM leukemia
[8] = system: COLO 205 colon
[9] = system: DU-145 prostate
[10] = system: EKVX NSCLC
[11] = system: HCC-2998 colon
[12] = system: HCT-116 colon
[13] = system: HCT-15 colon
[14] = system: HOP-62 NSCLC
[15] = system: HOP-92 NSCLC
[16] = system: HS 578T breast
[17] = system: HT29 colon
[18] = system: IGROV1 ovarian
[19] = system: K-562 leukemia
[20] = system: KM12 colon
[21] = system: LOX IMVI melanoma
[22] = system: M14 melanoma
[23] = system: MALME-3M melanoma
[24] = system: MCF7 breast
[25] = system: MDA-MB-231 breast
[26] = system: MDA-MB-435
[27] = system: MDA-N
[28] = system: MOLT-4 leukemia
[29] = system: NCI-H226 lung
[30] = system: NCI-H23 lung
[31] = system: NCI-H460 lung
[32] = system: NCI-H522 lung
[33] = system: NCI/ADR-RES ovarian
[34] = system: OVCAR-3 ovarian
[35] = system: OVCAR-4 ovarian
[36] = system: OVCAR-5 ovarian
[37] = system: OVCAR-8 ovarian
[38] = system: PC-3 prostate
[39] = system: RPMI-8226 leukemia
[40] = system: RXF 393 renal
[41] = system: SF-268 CNS
[42] = system: SF-295 CNS
[43] = system: SF-539 CNS
[44] = system: SK-MEL-2 melanoma
[45] = system: SK-MEL-28 melanoma
[46] = system: SK-MEL-5 melanoma
[47] = system: SK-OV-3 ovarian
[48] = system: SN12C renal
[49] = system: SNB-19 CNS
[50] = system: SNB-75 CNS
[51] = system: SR leukemia
[52] = system: SW-620 colon
[53] = system: T-47D breast
[54] = system: TK-10 renal
[55] = system: U251 CNS
[56] = system: UACC-257 melanoma
[57] = system: UACC-62 melanoma
[58] = system: UO-31 renal
[59] = system: HL-60(TB) leukemia

C/C(=N/NC(=S)Nc1ccccc1C)c1ccccn1
TGI [1]: 18 µM | TGI [2]: 12.3 µM | TGI [3]: 18.5 µM | TGI [4]: 10.3 µM | TGI [5]: 16 µM | TGI [6]: 19.5 µM | TGI [7]: 14.4 µM | TGI [8]: 2.56 µM | TGI [9]: 11.3 µM | TGI [10]: 6.46 µM | TGI [11]: 26 µM | TGI [12]: 12.9 µM | TGI [13]: 18.3 µM | TGI [14]: 8.99 µM | TGI [15]: 17 µM | TGI [16]: 65.3 µM | TGI [17]: 31.8 µM | TGI [18]: 12.1 µM | TGI [19]: 3.4 µM | TGI [20]: 17.4 µM | TGI [21]: 15.7 µM | TGI [22]: 5.7 µM | TGI [23]: 15.9 µM | TGI [24]: 12.8 µM | TGI [25]: 14.9 µM | TGI [26]: 15.5 µM | TGI [27]: 20.1 µM | TGI [28]: 2.08 µM | TGI [29]: 2.47 µM | TGI [30]: 27.2 µM | TGI [31]: 7.61 µM | TGI [32]: 12.9 µM | TGI [33]: 8.62 µM | TGI [34]: 9.47 µM | TGI [35]: 18.5 µM | TGI [36]: 10.7 µM | TGI [37]: 9.32 µM | TGI [38]: 19.5 µM | TGI [39]: > 55.8 µM | TGI [40]: 13.2 µM | TGI [41]: 30.9 µM | TGI [42]: 5.63 µM | TGI [43]: 8.15 µM | TGI [44]: 12.8 µM | TGI [45]: 23.1 µM | TGI [46]: 2.31 µM | TGI [47]: 14.8 µM | TGI [48]: 6.51 µM | TGI [49]: 54.8 µM | TGI [50]: 16.3 µM | TGI [51]: > 4.64 µM | TGI [52]: 29.2 µM | TGI [53]: 3.49 µM | TGI [54]: 4.27 µM | TGI [55]: 18.1 µM | TGI [56]: 1.88 µM | TGI [57]: 5.99 µM | TGI [58]: 15.6 µM

CCN(CC)CCOc1ccc(N2Cc3cc(OC)c(OC)cc3C2=O)cc1
TGI [1]: > 100 µM | TGI [2]: > 100 µM | TGI [3]: > 100 µM | TGI [4]: > 100 µM | TGI [5]: > 100 µM | TGI [6]: > 100 µM | TGI [7]: > 100 µM | TGI [8]: > 100 µM | TGI [9]: > 100 µM | TGI [10]: > 100 µM | TGI [11]: > 100 µM | TGI [12]: > 100 µM | TGI [13]: > 100 µM | TGI [59]: > 100 µM | TGI [14]: > 100 µM | TGI [15]: > 100 µM | TGI [16]: > 100 µM | TGI [17]: > 100 µM | TGI [18]: > 100 µM | TGI [19]: > 100 µM | TGI [20]: > 100 µM | TGI [21]: > 100 µM | TGI [22]: > 100 µM | TGI [23]: > 100 µM | TGI [24]: > 100 µM | TGI [25]: > 100 µM | TGI [26]: > 100 µM | TGI [27]: > 100 µM | TGI [28]: > 100 µM | TGI [29]: > 100 µM | TGI [30]: > 100 µM | TGI [31]: > 100 µM | TGI [32]: > 100 µM | TGI [33]: > 100 µM | TGI [34]: > 100 µM | TGI [35]: > 100 µM | TGI [36]: > 100 µM | TGI [37]: > 100 µM | TGI [38]: > 100 µM | TGI [39]: > 100 µM | TGI [40]: > 100 µM | TGI [41]: > 100 µM | TGI [42]: > 100 µM | TGI [43]: > 100 µM | TGI [44]: > 100 µM | TGI [45]: > 100 µM | TGI [46]: > 100 µM | TGI [47]: > 100 µM | TGI [48]: > 100 µM | TGI [49]: > 100 µM | TGI [51]: > 100 µM | TGI [52]: > 100 µM | TGI [53]: > 100 µM | TGI [54]: > 100 µM | TGI [55]: > 100 µM | TGI [56]: > 100 µM | TGI [57]: > 100 µM
